As a reminder, the IC50 is the concentration that gives 50% inhibition.

The record followed here is patent US10508086B2 (CANCER RESEARCH TECHNOLOGY LIMITED, priority 2014, dated 2019).

The target of one test is PARG in HeLa cell line (Homo sapiens (Human), UniProt Q86W56). The test can be described thus: PARG cell assay (nuclear PAR chains after MMS, immunofluorescence). Format: cell-based. Particulars: HeLa cells, MMS 50 μg/mL; read-out: PARG Cell IC50 Geomean. The method, then:
This method is based on the detection of endogenous levels of poly (ADP) ribose chains present in the nucleus of HeLa cell line using indirect immunofluorescence. MMS stimulation increases PAR chains for up to 25 mins. After that point, PARG is active and breaks down the PAR chains, until by one hour after stimulation no PAR chains are detectable. Inhibition of PARG maintains PAR chains.
Briefly, following compound treatment and treatment with the DNA damaging agent methylmethanesulfonate (MMS), the cell monolayer is fixed, then permeabilised and incubated with a mouse monoclonal antibody raised against multimers of poly(ADP) ribose. After an overnight incubation, excess antibody is removed by washing and an Alexafluor 488-linked secondary antibody which recognises the mouse monoclonal is added together with a nuclear stain (Hoechst 33342). Images of the cells are then captured and analysed on a High Content Screening platform and the total intensity of the nuclear fluorescent signal at […] is quantified.
HeLa cells, seeded in 384-well plates, at 4000/well in 30 μL RPMI 1640 media, supplemented with 10% FBS and 2 mM Glutamax, were incubated overnight at 37° C., 5% CO2.
The following day, cells were dosed in quadruplicate with compound (10 point dose response) and incubated for 1 h at 37° C., 5% CO2.
At the end of the 1 h dosing period, MMS was added to duplicates at a final concentration of 50 μg/mL, for a further hour.
Media was tipped off and the cells fixed with 50 μL ice-cold 95% MetOH/PBS for 15 mins at −20° C. Following a PBS wash, 50 μL PBS/0.1% Triton was added to the cells for 20 mins. Following another PBS wash, anti-PAR antibody (Calbiochem AM80) was diluted 1:4000 in a buffer (PBS+0.5% FBS+0.05% Tween20) and added to the cells and incubated overnight at 4° C.
The following day, cells were washed three times with PBS and then incubated for 1 hr with secondary antibody (Alexa Fluor® 488 goat anti mouse IgG (H+L)) diluted 1:1000 and Hoechst diluted 1:5000 in buffer (5% FBS in PBS+0.05% Tween20).
Cells were washed three times with PBS and the plate sealed with a light-proof seal.
Images of the cells were captured on a ThermoFisher Celllnsight and the mean total intensity of spots fluorescent at 485 nm in the nucleus was reported.

Another test addresses Human Full Length PARG (Homo sapiens (Human), UniProt Q86W56). The test can be described thus: PARG in vitro enzyme assay (TR-FRET). Particulars: read-out: PARG_EC50_ENZYME. Format: biochemical. As for the experimental part: PARG In vitro assays were conducted in a total volume of 15 ul in a standard 384 well format. 5 ul of Human Full Length PARG (Produced internally by Astra Zeneca), used at a final reaction concentration of […], was added to 5 ul of Ribosylated PARP substrate (also produced internally by Astra Zeneca) at final reaction concentration of 4.5 nM in assay buffer (50 mM Tris pH7.4, 0.1 mg/ml BSA, 3 mM EDTA, 0.4 mM EGTA, 1 mM DTT, 0.01% Tween 20, 50 mM KCl). The reaction was incubated at room temperature for 10 minutes and then 5 ul detection reagent was added. Detection Reagent consists of 42 nM MAb Anti-6HIS XL665 (CisBio: 61 HISXLB) and 2.25 nM Streptavidin Europium Cryptate (CisBio: 610SAKLB), both at 3× working stock concentrations (final concentrations of 14 nM and 0.75 nM respectively), in a detection buffer of 50 mM Tris pH7.4, BSA at 0.1 mg/ml and KF at 100 mM. Following incubation at room temperature for 60 minutes in the dark, TR-FRET signal was measured at Ex 340 and Em 665 and Em 620. A ratio was calculated as Em665/EM620×104 for each well and used to calculate percent inhibition for test compounds.
A general note: TR-FRET usually uses a lanthanide donor and a delayed reading to cut background.

Sequence of Human Full Length PARG (Q86W56 whole entry): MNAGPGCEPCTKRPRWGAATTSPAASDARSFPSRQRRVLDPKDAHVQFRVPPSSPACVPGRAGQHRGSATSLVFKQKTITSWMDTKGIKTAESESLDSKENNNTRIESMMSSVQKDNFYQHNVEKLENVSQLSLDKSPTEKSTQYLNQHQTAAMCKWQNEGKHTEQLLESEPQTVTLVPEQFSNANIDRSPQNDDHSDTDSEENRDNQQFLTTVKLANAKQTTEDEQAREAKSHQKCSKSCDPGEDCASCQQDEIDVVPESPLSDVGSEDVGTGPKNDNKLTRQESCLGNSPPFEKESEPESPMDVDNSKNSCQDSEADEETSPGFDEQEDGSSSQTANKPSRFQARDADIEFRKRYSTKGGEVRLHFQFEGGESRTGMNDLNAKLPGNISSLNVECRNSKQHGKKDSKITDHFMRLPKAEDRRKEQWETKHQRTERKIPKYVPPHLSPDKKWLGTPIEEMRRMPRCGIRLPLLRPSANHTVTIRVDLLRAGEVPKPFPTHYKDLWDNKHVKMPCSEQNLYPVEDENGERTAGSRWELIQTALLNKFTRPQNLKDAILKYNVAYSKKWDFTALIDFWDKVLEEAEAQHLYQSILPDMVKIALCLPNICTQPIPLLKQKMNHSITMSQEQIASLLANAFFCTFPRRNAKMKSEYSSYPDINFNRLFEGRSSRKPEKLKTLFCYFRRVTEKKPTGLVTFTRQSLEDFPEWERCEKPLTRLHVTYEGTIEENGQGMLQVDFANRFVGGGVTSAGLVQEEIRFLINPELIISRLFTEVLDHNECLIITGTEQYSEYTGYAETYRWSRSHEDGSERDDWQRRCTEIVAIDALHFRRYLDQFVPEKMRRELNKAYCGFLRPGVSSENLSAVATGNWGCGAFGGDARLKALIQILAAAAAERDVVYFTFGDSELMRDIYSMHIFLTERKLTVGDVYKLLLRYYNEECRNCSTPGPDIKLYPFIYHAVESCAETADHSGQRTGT
Sequence of PARG in HeLa cell line (Q86W56 whole entry): as above

For `COCCn1c(=O)n(-c2nnc(C(F)F)s2)c2cc(S(=O)(=O)NC3(C#N)CC3)ccc21` [Example 162, N-(1-Cyanocyclopropyl)-3-[5-(difluoromethyl)-1,3,4-thiadiazol-2-yl]-1-(2-methoxyethyl)-2-oxo-benzimidazole-5-sulfonamide], at PARG in HeLa cell line, the IC50 was found to be 0.176 µM. In addition, the EC50 at Human Full Length PARG was found to be 0.26 µM.
In the case of `COCCn1c(=O)n(-c2nnc(C)s2)c2cc(S(=O)(=O)NC3(CF)CC3)ccc21` [Example 160, N-[1-(Fluoromethyl)cyclopropyl]-1-(2-methoxyethyl)-3-(5-methyl-1,3,4-thiadiazol-2-yl)-2-oxo-benzimidazole-5-sulfonamide], at PARG in HeLa cell line, the half-inhibitory concentration (IC50) came out at 0.453 µM. The EC50 on Human Full Length PARG came out at 0.616 µM.
For the compound `N#CCn1c(=O)n(-c2nnc(C(F)F)s2)c2cc(S(=O)(=O)NC3(CF)CC3)c(F)cc21` [Example 215, 1-(Cyanomethyl)-3-[5-(difluoromethyl)-1,3,4-thiadiazol-2-yl]-6-fluoro-N-[1-(fluoromethyl)cyclopropyl]-2-oxo-benzimidazole-5-sulfonamide], the IC50 at PARG in HeLa cell line turned out to be 0.086 µM. Moreover, the EC50 at Human Full Length PARG stood at 0.17 µM.
As to `Cc1ccc(Cn2c(=O)n(-c3nnc(C)s3)c3cc(S(=O)(=O)NC4(C)CC4)ccc32)o1` [Example 103], the IC50 at PARG in HeLa cell line came out at 0.221 µM. On Human Full Length PARG, the EC50 is 0.284 µM.
The like results for `COCCn1c(=O)n(-c2ccc(C)nn2)c2cc(S(=O)(=O)NC3(CF)CC3)c(F)cc21` [Example 203, 6-Fluoro-N-[1-(fluoromethyl)cyclopropyl]-1-(2-methoxyethyl)-3-(6-methylpyridazin-3-yl)-2-oxo-benzimidazole-5-sulfonamide] were, in that order, 3.7 µM and 4.83 µM.
The like results for `COCCn1c(=O)n(-c2nnc(C)s2)c2cc(S(=O)(=O)NC3(C#N)CC3)ccc21` [Example 161, N-(1-Cyanocyclopropyl)-1-(2-methoxyethyl)-3-(5-methyl-1,3,4-thiadiazol-2-yl)-2-oxo-benzimidazole-5-sulfonamide] were, in that order, 0.491 µM and 0.616 µM.
Consider `COCCn1c(=O)n(-c2nnc(C(F)F)s2)c2cc(S(=O)(=O)NC3(C)CC3)c(F)cc21` [Example 168, 3-[5-(Difluoromethyl)-1,3,4-thiadiazol-2-yl]-6-fluoro-1-(2-methoxyethyl)-N-(1-methylcyclopropyl)-2-oxo-benzimidazole-5-sulfonamide], for which the IC50 at PARG in HeLa cell line is 0.032 µM. Further, on Human Full Length PARG, the EC50 is 0.099 µM.
As for `Cc1nnc(-n2cc(C(=O)C3CC3)c3ccc(S(=O)(=O)NC4(C)CC4)cc32)s1` [Example 130, 3-(Cyclopropanecarbonyl)-N-(1-methylcyclopropyl)-1-(5-methyl-1,3,4-thiadiazol-2-yl) indole-6-sulfonamide], on PARG in HeLa cell line, the IC50 is 0.135 µM. For the same compound, the EC50 on Human Full Length PARG came to 0.218 µM.
For the compound `Cc1nnc(-n2c(=O)n(CCCN(C)C)c3ccc(S(=O)(=O)NC4(C)CC4)cc32)s1` [Example 135], the IC50 on PARG in HeLa cell line came out at 0.371 µM. The EC50 on Human Full Length PARG was found to be 0.512 µM.
The matching figures for `Cc1nc(C)c(Cn2c(=O)n(-c3nc(Br)ns3)c3cc(S(=O)(=O)NC4(C)CC4)ccc32)s1` [Example 108]: 0.067 µM and 0.069 µM.
Consider `CCn1c(=O)n(-c2nnc(C(F)F)o2)c2cc(S(=O)(=O)NC3(C)CC3)ccc21` [Example 201, 3-[5-(Difluoromethyl)-1,3,4-oxadiazol-2-yl]-1-ethyl-N-(1-methylcyclopropyl)-2-oxo-benzimidazole-5-sulfonamide], for which the IC50 on PARG in HeLa cell line was found to be 0.189 µM. Also, on Human Full Length PARG, the EC50 turned out to be 0.759 µM.
`Cc1cc(Cn2c(=O)n(-c3nnc(C(F)F)s3)c3cc(S(=O)(=O)NC4(CF)CC4)ccc32)n(C)n1` [Example 164, 3-[5-(Difluoromethyl)-1,3,4-thiadiazol-2-yl]-1-[(2,5-dimethylpyrazol-3-yl)methyl]-N-[1-(fluoromethyl)cyclopropyl]-2-oxo-benzimidazole-5-sulfonamide]: at PARG in HeLa cell line, the IC50 was found to be 0.109 µM. In addition, the EC50 on Human Full Length PARG amounted to 0.203 µM.
Consider `C#CCn1c(=O)n(-c2nnc(C(F)F)s2)c2cc(S(=O)(=O)NC3(CF)CC3)ccc21` [Example 193, 3-[5-(Difluoromethyl)-1,3,4-thiadiazol-2-yl]-N-[1-(fluoromethyl)cyclopropyl]-2-oxo-1-prop-2-ynyl-benzimidazole-5-sulfonamide], for which the IC50 on PARG in HeLa cell line worked out at 0.04 µM. Also, at Human Full Length PARG, the EC50 stood at 0.153 µM.
The matching figures for `Cc1nnc(-n2c(=O)n(C)c3ccc(S(=O)(=O)NC4(C)CC4)cc32)o1` [Example 189, 1-Methyl-N-(1-methylcyclopropyl)-3-(5-methyl-1,3,4-oxadiazol-2-yl)-2-oxo-benzimidazole-5-sulfonamide]: 1.23 µM and 1.79 µM.
Take `Cc1cnc(-n2c(=O)n(Cc3sc(C)nc3C)c3ccc(S(=O)(=O)NC4(C)CC4)cc32)s1` [Example 107]: the IC50 on PARG in HeLa cell line came out at 0.159 µM. The EC50 on Human Full Length PARG turned out to be 0.086 µM.
The like results for `Cc1nsc(-n2c(=O)n(C)c3cc(F)c(S(=O)(=O)NC4(CF)CC4)cc32)n1` [Example 172, 6-Fluoro-N-[1-(fluoromethyl)cyclopropyl]-1-methyl-3-(3-methyl-1,2,4-thiadiazol-5-yl)-2-oxo-benzimidazole-5-sulfonamide] were, in that order, 2.09 µM and 12 µM.
The like results for `Cc1nnc(-n2c(=O)n(Cc3sc(C)nc3C)c3ccc(S(=O)(=O)NC4(C)CC4)cc32)o1` [Example 99] were, in that order, 0.342 µM and 0.202 µM.
The matching figures for `Cc1nnc(-n2c(=O)[nH]c3ccc(S(=O)(=O)NC4(C#N)CC4)cc32)s1` [Example 157, N-(1-Cyanocyclopropyl)-3-(5-methyl-1,3,4-thiadiazol-2-yl)-2-oxo-1H-benzimidazole-5-sulfonamide]: 3.5 µM and 1.17 µM.
Regarding `Cc1nsc(-n2c(=O)n(C)c3cc(F)c(S(=O)(=O)NC4(C)CC4)cc32)n1` [Example 171, 6-Fluoro-1-methyl-N-(1-methylcyclopropyl)-3-(3-methyl-1,2,4-thiadiazol-5-yl)-2-oxo-benzimidazole-5-sulfonamide], the IC50 on PARG in HeLa cell line was determined as 1.55 µM. Moreover, at Human Full Length PARG, the EC50 was determined as 7.11 µM.
As for `Cc1ccc(Cn2c(=O)n(-c3nnc(C)s3)c3cc(S(=O)(=O)NC4(C)CC4)ccc32)s1` [Example 104], on PARG in HeLa cell line, the IC50 turned out to be 0.245 µM. Also, the EC50 at Human Full Length PARG was determined as 0.28 µM.
For the compound `Cc1cc(Cn2c(=O)n(-c3nnc(C(F)F)s3)c3cc(S(=O)(=O)NC4(C#N)CC4)ccc32)n(C)n1` [Example 165, N-(1-Cyanocyclopropyl)-3-[5-(difluoromethyl)-1,3,4-thiadiazol-2-yl]-1-[(2,5-dimethylpyrazol-3-yl)methyl]-2-oxo-benzimidazole-5-sulfonamide], the IC50 at PARG in HeLa cell line stood at 0.127 µM. In addition, on Human Full Length PARG, the EC50 is 0.234 µM.
For `Cc1nsc(-n2c(=O)n(C)c3ccc(S(=O)(=O)NC4(CF)CC4)cc32)n1` [Example 177], the IC50 at PARG in HeLa cell line was 2.54 µM.
Regarding `Cc1nc(C)c(Cn2c(=O)[nH]c3cc(S(=O)(=O)NC4(C)CC4)ccc32)s1` [Example 89, 1-[(2,4-Dimethylthiazol-5-yl)methyl]-N-(1-methylcyclopropyl)-2-oxo-3H-benzimidazole-5-sulfonamide], the EC50 at Human Full Length PARG was 9.27 µM.
On to `Cc1nnc(-n2c(CCc3cnn(C)c3)nc3ccc(S(=O)(=O)NC4(C)CC4)cc32)s1` [Example 121], for which the EC50 on Human Full Length PARG amounted to 1.02 µM.
